Laboratory results as given in ChEMBL document CHEMBL1143666 (J Med Chem, 2007).
pIC50: −log10 of the molar value.

Experiments:
MCF7 = experiment: Antiproliferative activity against human MCF7 cells by MTS assay; format: functional, cell-based
Heat shock protein HSP90 [1] = target: T1, Heat shock protein HSP90 (Homo sapiens, UniProt P07900+P08238); settings: mcf7
Description: Inhibition of human recombinant HSP90 in MCF7 cells assessed as Her2 degradation

Heat shock protein HSP90 [2] = target: T1, Heat shock protein HSP90; settings: mcf7; remark: listed apart in the source
Description: Binding affinity to human recombinant HSP90 in MCF7 cell lysates assessed as inhibition of biotinylated-geldanamycin binding

BT-474 = experiment: Antiproliferative activity against human BT474 cells by MTS assay; format: functional, cell-based
RPTEC [3] = experiment: Antiproliferative activity against human RPTEC; format: cell-based
HT-29 = experiment: Antiproliferative activity against human HT29 cells; format: functional, cell-based
RPTEC [4] = experiment: Selectivity index, ratio of IC50 for human RPTEC cells to IC50 for HT29 cells; format: functional, cell-based
RPTEC [5] = experiment: Selectivity index, ratio of IC50 for human RPTEC cells to IC50 for MCF7 cells; format: functional, cell-based
Heat shock protein HSP90 [6] = target: T1, Heat shock protein HSP90
Description: Binding affinity to human recombinant HSP90 assessed as inhibition of biotinylated-geldanamycin binding

Heat shock protein HSP90 [7] = target: T1, Heat shock protein HSP90; settings: ndf
Description: Binding affinity to HSP90 in human NDF cell lysates assessed as inhibition of biotinylated-geldanamycin binding

Heat shock protein HSP90 [8] = target: T1, Heat shock protein HSP90; settings: mcf7; remark: listed apart in the source
Description: Selectivity for HSP90 in MCF7 cells over HSP90 in NDF cells

[9] = Aqueous solubility of the compound; format: physicochemical; settings: aqueous medium
[10] = Solubility in simulated gastric fluid at pH 2.0; format: physicochemical
[11] = Solubility in simulated intestinal fluid at pH 6.5; format: physicochemical
[12] = Solubility in mouse serum at pH 7.4; format: ADME, cell-free
[13] = Cmax in BALB/c mouse at 100 mg/kg, po; format: ADME, organism-based; parameters: dose 100 mg/kg, route oral; settings: in vivo
[14] = Tmax in BALB/c mouse at 100 mg/kg, po; format: ADME, organism-based; parameters: dose 100 mg/kg, route oral; settings: in vivo
[15] = AUC in BALB/c mouse at 100 mg/kg, po; format: ADME, organism-based; parameters: dose 100 mg/kg, route oral; settings: plasma
[16] = Half life in BALB/c mouse at 100 mg/kg, po; format: ADME, organism-based; parameters: dose 100 mg/kg, route oral; settings: in vivo
Liver microsomes = experiment: Metabolic stability in human liver microsomes; format: ADME, Microsome
NCI-N87 [17] = experiment: Antitumor activity in human N87 cells xenografted mouse assessed as tumor growth inhibition at 60 mg/kg, po administered weekly 5-day-on and 2-day-off schedule for 5 weeks; format: functional; settings: read-out: TGI
NCI-N87 [18] = experiment: Antitumor activity in human N87 cells xenografted mouse assessed as tumor growth inhibition at 125 mg/kg, po administered weekly 5-day-on and 2-day-off schedule for 5 weeks; format: functional; settings: read-out: TGI
NCI-N87 [19] = experiment: Antitumor activity in human N87 cells xenografted mouse assessed as tumor growth inhibition at 90 mg/kg, ip administered weekly 5-day-on and 2-day-off schedule for 5 weeks; format: functional; settings: route intraperitoneal, read-out: TGI

Row | Structure (SMILES) | pIC50 (MCF7) | IC50 (Heat shock protein HSP90 [1]) [nM] | IC50 (Heat shock protein HSP90 [2]) [nM] | pIC50 (BT-474) | further results
1 | C#CCCCn1c(Cc2cc(OC)c(OC)c(OC)c2Cl)nc2c(N)nc(F)nc21 | 5.92 |  |  |  | 
2 | Cc1cnc(Cn2cnc3c(Cl)nc(N)nc32)c(C)c1[N+](=O)[O-] |  | 1000 |  |  | 
3 | Cc1cnc(Cn2cnc3c(Cl)nc(N)nc32)c(C)c1N |  | 5800 |  |  | 
4 | Cc1cnc(Cn2cnc3c(Cl)nc(N)nc32)c(C)c1 |  | 7500 | 4000 |  | 
5 | COc1cc(Cn2cnc3c(C)nc(N)nc32)c(Cl)c(OC)c1OC |  | 1800 |  |  | 
6 | COc1cc(Cn2cnc3c(S)nc(N)nc32)c(Br)c(OC)c1OC |  | 100000 |  |  | 
7 | Cc1cnc(Cn2cnc3c(Cl)nc(N)nc32)c(C)c1C | 6.52 | 42 | 35 | 7.10 | 
8 | CSc1c(C)cnc(Cn2cnc3c(Cl)nc(N)nc32)c1C | 6.30 | 27 | 40 | 7.05 | pIC50 (RPTEC [3]): 5.64; pIC50 (HT-29): 6.70; selectivity index (RPTEC [4]): 12; selectivity index (RPTEC [5]): 5
9 | COc1ccc(OC)c(Cn2cnc3c(Cl)nc(N)nc32)c1 |  | 3000 |  |  | 
10 | COc1cc(Cn2cnc3c(Cl)nc(N)nc32)cc(OC)c1OC |  | 2000 |  |  | 
11 | COc1cc(Cn2cnc3c(Cl)nc(N)nc32)c(Br)c(OC)c1OC |  | 70 |  |  | 
12 | COc1cc(Cn2cnc3c(Br)nc(N)nc32)c(Br)c(OC)c1OC |  | 55 |  |  | 
13 | COc1cc(Cn2cnc3c(N)nc(N)nc32)c(Br)c(OC)c1OC |  | 17000 |  |  | 
14 | Cc1cnc(Cn2cnc3c(Cl)nc(N)nc32)c(C)c1[S+](C)[O-] (stereo unspecified) |  | > 10000 | 10000 |  | 
15 | CCOc1c(C)cnc(Cn2cnc3c(Cl)nc(N)nc32)c1C |  | 1500 |  |  | 
16 | COc1c(C)c[n+]([O-])c(Cn2cnc3c(Cl)nc(N)nc32)c1C | 7.00 | 80 | 30 | 6.82 | IC50 (Heat shock protein HSP90 [6]): 800 nM
17 | Cc1cnc(Cn2cnc3c(Cl)nc(N)nc32)c(C)c1Cl | 7.00 | 35 | 10 | 6.52 | pIC50 (RPTEC [3]): 5.30; pIC50 (HT-29): 6.30; selectivity index (RPTEC [4]): 10; selectivity index (RPTEC [5]): 50
18 | Cc1cnc(Cn2cnc3c(Cl)nc(N)nc32)c(C)c1Br | 7.52 | 15 | 2 | 7.30 | pIC50 (RPTEC [3]): 5.89; pIC50 (HT-29): 6.89; selectivity index (RPTEC [4]): 10; selectivity index (RPTEC [5]): 43; IC50 (Heat shock protein HSP90 [7]): 800 nM; IC50 (Heat shock protein HSP90 [8]): 400000 nM
19 | Cc1cnc(Cn2cnc3c(Cl)nc(N)nc32)c(C)c1O |  | 100000 |  |  | 
20 | Cc1cnc(Cn2cnc3c(Cl)nc(N)nc32)c(C)c1OC(C)C |  | 1500 |  |  | 
21 | COc1c(C)c(Cl)nc(Cn2cnc3c(Cl)nc(N)nc32)c1C | 6.30 | 90 | 25 | 6.30 | 
22 | COc1cc(Cn2cnc3c(Cl)nc(N)nc32)c(Cl)c(OC)c1OC |  | 50 |  |  | solubility [9]: < 1 µg/mL
23 | COc1cc(Cn2cnc3c(Cl)nc(N)nc32)c(I)c(OC)c1OC |  | 340 |  |  | 
24 | COc1cc(Cn2cnc3c(O)nc(N)nc32)c(Cl)c(OC)c1OC |  | 700 |  |  | 
25 | COc1cc(Cn2cnc3cnc(N)nc32)c(Br)c(OC)c1OC |  | 50000 |  |  | 
26 | Cc1cnc(Cn2cnc3c(Cl)nc(N)nc32)c(C)c1I | 7.52 | 9 | 3 | 7.52 | pIC50 (RPTEC [3]): 6.82; pIC50 (HT-29): 7.64; selectivity index (RPTEC [4]): 7; selectivity index (RPTEC [5]): 5; IC50 (Heat shock protein HSP90 [7]): 1000 nM; IC50 (Heat shock protein HSP90 [8]): 333000 nM
27 | COc1cc(Cn2cnc3c(OC)nc(N)nc32)c(Br)c(OC)c1OC |  | 45000 |  |  | 
28 | COc1c(C)ncc(Cn2cnc3c(Cl)nc(N)nc32)c1C.Cl | 6.82 | 20 | 18 | 7.30 | solubility [10]: 451 µg/mL; solubility [11]: 234 µg/mL; solubility [12]: 186 µg/mL; Cmax [13]: 28200 ng/mL; Tmax [14]: 6 min; AUC [15]: 9000 ng·h/mL; half-life [16]: 54 min; Stability (Liver microsomes): 83%; inhibition in vivo at 60 mg/kg (NCI-N87 [17]): 83%; IC50 (Heat shock protein HSP90 [6]): 900 nM
29 | COc1c(C)cnc(Cn2cnc3c(Cl)nc(N)nc32)c1C.Cl | 7.00 |  |  | 7.00 | pIC50 (RPTEC [3]): 6.22; pIC50 (HT-29): 6.89; selectivity index (RPTEC [4]): 5; selectivity index (RPTEC [5]): 6; solubility [10]: 240 µg/mL; solubility [11]: 87 µg/mL; solubility [12]: 176 µg/mL; Cmax [13]: 10000 ng/mL; Tmax [14]: 6 min; AUC [15]: 4800 ng·h/mL; half-life [16]: 48 min; Stability (Liver microsomes): 86%; inhibition in vivo at 125 mg/kg (NCI-N87 [18]): 87%
30 | C=CCNC1=C2C[C@@H](C)C[C@H](OC)[C@H](O)[C@@H](C)/C=C(\C)[C@H](OC(N)=O)[C@@H](OC)/C=C\C=C(/C)C(=O)NC(=CC1=O)C2=O [TANESPIMYCIN] | 8.00 |  |  | 8.00 | pIC50 (RPTEC [3]): 7.00; pIC50 (HT-29): 8.70; inhibition in vivo at 90 mg/kg (NCI-N87 [19]): 70%
